Data: BindingDB's records for doi:10.1074/jbc.M607913200 (Incyte, 2006)
pIC50: −log10 of the molar value. Non-standard residues stand in square brackets, D forms with d. Residues, ends and D or L forms follow the SMILES beside them. F2Pmp = N[C@@H](Cc1ccc(C(F)(F)P(=O)(O)O)cc1)C(=O)O

Target: T1, Tyrosine-protein phosphatase non-receptor type 1 [1-298] (Homo sapiens, UniProt P18031)
T1 construct: 1-298
T1 sequence (P18031 whole entry): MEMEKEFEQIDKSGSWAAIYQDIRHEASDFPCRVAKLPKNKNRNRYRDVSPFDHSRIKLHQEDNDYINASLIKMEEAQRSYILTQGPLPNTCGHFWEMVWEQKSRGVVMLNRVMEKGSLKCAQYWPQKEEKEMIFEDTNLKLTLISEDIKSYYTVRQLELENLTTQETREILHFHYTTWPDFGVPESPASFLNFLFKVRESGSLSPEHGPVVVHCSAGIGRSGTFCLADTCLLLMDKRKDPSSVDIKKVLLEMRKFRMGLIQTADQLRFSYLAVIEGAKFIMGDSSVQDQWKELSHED
Assay: Phosphatase Inhibition Assay

SMILES	pIC50	pIC50 (pH 7, 22 °C)
O=C1CC(c2ccc(C[C@H](NS(=O)(=O)c3ccc(Br)c(C(F)(F)F)c3)c3nc4ccccc4[nH]3)cc2)S(=O)(=O)N1 (stereo partly drawn) [N-[(1S)-1-(1H-1,3-benzodiazol-2-yl)-2-[4-(1,1,3-trioxo-1,2-thiazolidin-5-yl)phenyl]ethyl]-4-bromo-3-(trifluoromethyl)benzene-1-sulfonamide]	7.40	–
C#Cc1cc(C[C@H](NS(=O)(=O)c2ccccc2)c2nc3ccccc3[nH]2)ccc1C1CC(=O)NS1(=O)=O (stereo partly drawn) [N-[(1S)-1-(1H-1,3-benzodiazol-2-yl)-2-[3-ethynyl-4-(1,1,3-trioxo-1,2-thiazolidin-5-yl)phenyl]ethyl]benzenesulfonamide]	6.92	–
O=C1CC(c2ccc(C[C@H](NS(=O)(=O)c3cccc(Oc4ccc(C(F)(F)F)cc4)c3)c3nc4ccccc4[nH]3)cc2)S(=O)(=O)N1 (stereo partly drawn) [N-[(1S)-1-(1H-1,3-benzodiazol-2-yl)-2-[4-(1,1,3-trioxo-1,2-thiazolidin-5-yl)phenyl]ethyl]-3-[4-(trifluoromethyl)phenoxy]benzene-1-sulfonamide]	6.66	–
CC(=O)N[C@@H](Cc1ccccc1)C(=O)N[C@@H](Cc1ccc(C(F)(F)P(=O)(O)O)cc1)C(N)=O [DFMP 5] (Ac-Phe-[F2Pmp]-NH2)	–	5.77
O=C1CC(c2ccc(C[C@H](NS(=O)(=O)c3ccccc3Cl)c3nc4ccccc4[nH]3)cc2)S(=O)(=O)N1 (stereo partly drawn) [N-[(1S)-1-(1H-1,3-benzodiazol-2-yl)-2-[4-(1,1,3-trioxo-1,2-thiazolidin-5-yl)phenyl]ethyl]-2-chlorobenzene-1-sulfonamide]	6.80	–
CC(F)(F)C(=O)N[C@@H](Cc1ccc(C2CC(=O)NS2(=O)=O)cc1)c1nc2ccccc2[nH]1 (stereo partly drawn) [N-[(1S)-1-(1H-1,3-benzodiazol-2-yl)-2-[4-(1,1,3-trioxo-1,2-thiazolidin-5-yl)phenyl]ethyl]-2,2-difluoropropanamide]	6.52	–
O=C1CC(c2ccc(C[C@H](NS(=O)(=O)c3cc(C(F)(F)F)ccc3C(F)(F)F)c3nc4ccccc4[nH]3)cc2)S(=O)(=O)N1 (stereo partly drawn) [N-[(1S)-1-(1H-1,3-benzodiazol-2-yl)-2-[4-(1,1,3-trioxo-1,2-thiazolidin-5-yl)phenyl]ethyl]-2,5-bis(trifluoromethyl)benzene-1-sulfonamide]	6.68	–
CC(C)c1ccc(S(=O)(=O)N[C@@H](Cc2ccc(C3CC(=O)NS3(=O)=O)cc2)c2nc3ccccc3[nH]2)cc1 (stereo partly drawn) [N-[(1S)-1-(1H-1,3-benzodiazol-2-yl)-2-[4-(1,1,3-trioxo-1,2-thiazolidin-5-yl)phenyl]ethyl]-4-(propan-2-yl)benzene-1-sulfonamide]	7.00	–
NC(=O)[C@H](Cc1ccccc1)NC(=O)[C@@H](NC(=O)Cc1ccc(C(F)(F)P(=O)(O)O)cc1)C(=O)O [(2R)-2-{[(1S)-1-carbamoyl-2-phenylethyl]carbamoyl}-2-(1-{4-[difluoro(phosphono)methyl]phenyl}acetamido)acetic acid]	–	4.48
O=C1CC(c2ccc(C[C@H](NS(=O)(=O)c3cc(Cl)cc(Cl)c3)c3nc4ccccc4[nH]3)cc2)S(=O)(=O)N1 (stereo partly drawn) [N-[(1S)-1-(1H-1,3-benzodiazol-2-yl)-2-[4-(1,1,3-trioxo-1,2-thiazolidin-5-yl)phenyl]ethyl]-3,5-dichlorobenzene-1-sulfonamide]	7.29	–
Cc1ccccc1S(=O)(=O)N[C@@H](Cc1ccc(C2CC(=O)NS2(=O)=O)cc1)c1nc2ccccc2[nH]1 (stereo partly drawn) [N-[(1S)-1-(1H-1,3-benzodiazol-2-yl)-2-[4-(1,1,3-trioxo-1,2-thiazolidin-5-yl)phenyl]ethyl]-2-methylbenzene-1-sulfonamide]	6.52	–
O=C1CC(c2ccc(C[C@H](NS(=O)(=O)c3cccc(Oc4ccccc4)c3)c3nc4ccccc4[nH]3)cc2)S(=O)(=O)N1 (stereo partly drawn) [N-[(1S)-1-(1H-1,3-benzodiazol-2-yl)-2-[4-(1,1,3-trioxo-1,2-thiazolidin-5-yl)phenyl]ethyl]-3-phenoxybenzene-1-sulfonamide]	6.96	–
CN1CCOc2cc(S(=O)(=O)N[C@@H](Cc3ccc([C@@H]4CC(=O)NS4(=O)=O)cc3)c3nc4ccccc4[nH]3)ccc21 [N-[(1S)-1-(1H-benzoimidazol-2-yl)-2-[4-[(5S)-1,1,3-trioxo-1,2-thiazolidin-5-yl]phenyl]ethyl]-7-methyl-10-oxa-7-azabicyclo[4.4.0]deca-2,4,11-triene-3-sulfonamide]	–	7.23
CC(C)C(=O)N[C@@H](Cc1ccc(C2CC(=O)NS2(=O)=O)cc1)c1nc2ccccc2[nH]1 (stereo partly drawn) [N-[(1S)-1-(1H-1,3-benzodiazol-2-yl)-2-[4-(1,1,3-trioxo-1,2-thiazolidin-5-yl)phenyl]ethyl]-2-methylpropanamide]	5.49	–
O=C1C[C@@H](c2ccc(C[C@H](NC(=O)C(F)(F)F)c3nc4ccc(C(F)(F)F)cc4[nH]3)cc2)S(=O)(=O)N1 [N-{(1S)-2-[4-(1,1-dioxido-3-oxoisothiazolidin-5-yl)phenyl]-1-[5-(trifluoromethyl)-1H-benzimidazol-2-yl]ethyl}-2,2,2-trifluoroacetamide]	–	6.96
N#Cc1cc(C[C@H](NS(=O)(=O)c2ccccc2)c2nc3ccccc3[nH]2)ccc1C1CC(=O)NS1(=O)=O (stereo partly drawn) [N-[(1S)-1-(1H-1,3-benzodiazol-2-yl)-2-[3-cyano-4-(1,1,3-trioxo-1,2-thiazolidin-5-yl)phenyl]ethyl]benzenesulfonamide]	7.51	–
O=C1CC(c2ccc(C[C@H](NS(=O)(=O)c3ccccc3)c3nc4ccccc4[nH]3)cc2)S(=O)(=O)N1 (stereo partly drawn) [N-[(1S)-1-(1H-1,3-benzodiazol-2-yl)-2-[4-(1,1,3-trioxo-1,2-thiazolidin-5-yl)phenyl]ethyl]benzenesulfonamide]	6.92	–
O=C(CCc1ccccc1)N[C@@H](Cc1ccc(C2CC(=O)NS2(=O)=O)cc1)c1nc2ccccc2[nH]1 (stereo partly drawn) [N-[(1S)-1-(1H-1,3-benzodiazol-2-yl)-2-[4-(1,1,3-trioxo-1,2-thiazolidin-5-yl)phenyl]ethyl]-3-phenylpropanamide]	6.22	–
O=C1CC(c2ccc(C[C@H](NS(=O)(=O)c3ccccc3)c3nc4ccccc4[nH]3)cc2Br)S(=O)(=O)N1 (stereo partly drawn) [N-[(1S)-1-(1H-1,3-benzodiazol-2-yl)-2-[3-bromo-4-(1,1,3-trioxo-1,2-thiazolidin-5-yl)phenyl]ethyl]benzenesulfonamide]	6.77	–
NC(=O)[C@H](Cc1ccc(C(F)(F)P(=O)(O)O)cc1)NC(=O)[C@@H](NC(=O)Cc1ccc(C(F)(F)P(=O)(O)O)cc1)C(=O)O [(2R)-2-{[(1S)-1-carbamoyl-2-{4-[difluoro(phosphono)methyl]phenyl}ethyl]carbamoyl}-2-(1-{4-[difluoro(phosphono)methyl]phenyl}acetamido)acetic acid]	–	9.40
NC(=O)[C@H](Cc1ccc(C(F)(F)P(=O)(O)O)cc1)NC(=O)CNC(=O)Cc1ccc(C(F)(F)P(=O)(O)O)cc1 [({4-[(2S)-2-carbamoyl-2-[2-(1-{4-[difluoro(phosphono)methyl]phenyl}acetamido)acetamido]ethyl]phenyl}difluoromethyl)phosphonic acid]	–	7.38
CC(=O)N[C@@H](Cc1ccc(C2CC(=O)NS2(=O)=O)cc1)c1nc2ccccc2[nH]1 (stereo partly drawn) [N-[(1S)-1-(1H-1,3-benzodiazol-2-yl)-2-[4-(1,1,3-trioxo-1,2-thiazolidin-5-yl)phenyl]ethyl]acetamide]	5.59	–
O=C1CC(c2ccc(C[C@H](NS(=O)(=O)c3cccc(F)c3)c3nc4ccccc4[nH]3)cc2)S(=O)(=O)N1 (stereo partly drawn) [N-[(1S)-1-(1H-1,3-benzodiazol-2-yl)-2-[4-(1,1,3-trioxo-1,2-thiazolidin-5-yl)phenyl]ethyl]-3-fluorobenzene-1-sulfonamide]	7.18	–
Cc1cc(S(=O)(=O)N[C@@H](Cc2ccc(C3CC(=O)NS3(=O)=O)cc2)c2nc3ccccc3[nH]2)ccc1-c1ccccc1 (stereo partly drawn) [N-[(1S)-1-(1H-1,3-benzodiazol-2-yl)-2-[4-(1,1,3-trioxo-1,2-thiazolidin-5-yl)phenyl]ethyl]-3-methyl-4-phenylbenzene-1-sulfonamide]	7.05	–
Cc1ccc2nc(N[C@@H](Cc3ccc([C@@H]4CC(=O)NS4(=O)=O)cc3)c3nc4ccccc4[nH]3)sc2c1 [(5S)-5-{4-[(2S)-2-(1H-1,3-benzodiazol-2-yl)-2-[(6-methyl-1,3-benzothiazol-2-yl)amino]ethyl]phenyl}-1,2-thiazolidine-1,1,3-trione]	5.96	–
O=C1CC(c2ccc(C[C@H](NS(=O)(=O)c3ccccc3)c3nc4ccccc4[nH]3)cc2F)S(=O)(=O)N1 (stereo partly drawn) [N-[(1S)-1-(1H-1,3-benzodiazol-2-yl)-2-[3-fluoro-4-(1,1,3-trioxo-1,2-thiazolidin-5-yl)phenyl]ethyl]benzenesulfonamide]	7.47	–
Cc1ccc(S(=O)(=O)N[C@@H](Cc2ccc(C3CC(=O)NS3(=O)=O)cc2)c2nc3ccccc3[nH]2)cc1 (stereo partly drawn) [N-[(1S)-1-(1H-1,3-benzodiazol-2-yl)-2-[4-(1,1,3-trioxo-1,2-thiazolidin-5-yl)phenyl]ethyl]-4-methylbenzene-1-sulfonamide]	7.10	–
O=C1CC(c2ccc(C[C@H](NS(=O)(=O)c3ccc(C(F)(F)F)cc3Br)c3nc4ccccc4[nH]3)cc2)S(=O)(=O)N1 (stereo partly drawn) [N-[(1S)-1-(1H-1,3-benzodiazol-2-yl)-2-[4-(1,1,3-trioxo-1,2-thiazolidin-5-yl)phenyl]ethyl]-2-bromo-4-(trifluoromethyl)benzene-1-sulfonamide]	6.77	–
O=C1CC(c2ccc(C[C@H](NS(=O)(=O)c3ccc(Oc4ccncc4)cc3)c3nc4ccccc4[nH]3)cc2)S(=O)(=O)N1 (stereo partly drawn) [N-[(1S)-1-(1H-1,3-benzodiazol-2-yl)-2-[4-(1,1,3-trioxo-1,2-thiazolidin-5-yl)phenyl]ethyl]-4-(pyridin-4-yloxy)benzene-1-sulfonamide]	6.92	–
O=C(Cc1ccc(C(F)(F)P(=O)(O)O)cc1)N[C@@H](Cc1ccccc1)C(=O)NCCc1ccc(C(F)(F)P(=O)(O)O)cc1 [[(4-{2-[(2S)-2-(1-{4-[difluoro(phosphono)methyl]phenyl}acetamido)-3-phenylpropanamido]ethyl}phenyl)difluoromethyl]phosphonic acid]	–	7.34
